Results published in patent US7183320B2, “Benzoylsulfonamides and sulfonylbenzamidines for use as antitumour agents” (Eli Lilly and Company, priority 2002, dated 2007).

Assays:
Format in all cases: in vivo
[1] = system: MURINE SQUAMOUS LUNG LC-12; assay: Early stage murine squamous lung LC-12 (Table VI); conditions: Balb/C female mice
From the text: (§1) Conventional Murine Tumor and Human Tumor Xenouraft Assays
(§2) Briefly, the murine tumor or human xenograph was implanted subcutaneously using either 12-gauge trocar implants or counted number of cells. The location for the trocar insertion is midway between the axillary and inguinal region along the side of the mouse. The trocar is slipped approximately ¾ of an inch subcutaneously up toward the axilla before discharging the tumor fragment, and pinching the skin as the trocar is removed., Alternatively, human tumor cells prepared from a […] of donor tumors (5×10^6 cells) were implanted subcutaneously in a hind-leg of a male or female nude mouse (Charles River). Either a test compound in vehicle or vehicle alone was administered by intravenous bolus injection (iv), intraperitoneal injection (ip), or oral gavage (po). Each treatment group, as well as a group of untreated control animals, consisted of five animals per group in each experiment. […] Body weights were taken as a general measure of toxicity. The subcutaneous tumor data were analyzed by determining the median tumor weight for each treatment group over the course of the experiment and calculating the tumor growth delay as the difference in days for the treatment versus the control tumors to reach a volume of either 500 or 1000 mm^3.
(§3) The parameters measured in each experiment are summarized in the following paragraphs. • Tumor Weight(mg)=(a×b^2)/2 where a=tumor length (mm) and b=tumor width (mm). • Tumor Growth Delay=T−C where T is the median time (days) required for the treatment group tumors to reach a predetermined size, and C is the median time (days) for the control group tumors to reach the same size. Tumor-free survivors are excluded from this calculation, and are tabulated separately (Tumor Free).
(§4) The median tumor weight of each group is determined (including zeros). The T/C value in percent is an indication of antitumor effectiveness.

HUMAN OVARIAN BG-1 = assay: Early stage human ovarian BG-1 xenograft (Table IX); conditions: Balb/C SCID female mice
From the text: as §1
Inhibition of tumors transplanted into mice is an accepted procedure for studying the efficacy of antitumor agents (Corbett, et al., In vivo Methods for Screening and Preclinical Testing; Use of rodent solid tumors for drug discovery., In: Anticancer Drug Development Guide: Preclinical Screening, Clinical Trials, and Approval, B. Teicher (ed), Humana Press Inc., Totowa, N.J., Chapter 5, pages 75–99 (1997); (Corbett, et al., Int., J. Parmacog., 33, Supplement, 102–122 (1995)). Murine tumors or human xenographs were implanted essentially as described by Corbett in In vivo Methods for Screening and Preclimical Testing; Use of rodent solid tumors for drug discovery. Briefly, the murine tumor or human xenograph was implanted subcutaneously using either 12-gauge trocar implants or counted number of cells. The location for the trocar insertion is midway between the axillary and inguinal region along the side of the mouse. The trocar is slipped approximately ¾ of an inch subcutaneously up toward the axilla before discharging the tumor fragment, and pinching the skin as the trocar is removed., Alternatively, human tumor cells prepared from a […] of donor tumors (5×10^6 cells) were implanted subcutaneously in a hind-leg of a male or female nude mouse (Charles River). Either a test compound in vehicle or vehicle alone was administered by intravenous bolus injection (iv), intraperitoneal injection (ip), or oral gavage (po). Each treatment group, as well as a group of untreated control animals, consisted of five animals per group in each experiment. Subcutaneous tumor response was monitored by tumor volume measurement performed twice each week over the course of the experiment (60–120 days). Body weights were taken as a general measure of toxicity. The subcutaneous tumor data were analyzed by determining the median tumor weight for each treatment group over the course of the experiment and calculating the tumor growth delay as the difference in days for the treatment versus the control tumors to reach a volume of either 500 or 1000 mm^3.
as §3, with “The compound of Example 110 was tested against a variety of murine and human tumors substantially as described supra. The” for “The”
[formula] • where Tumor Growth Delay is as previously defined and Td is tumor volume doubling time (days), estimated from the best fit straight line from a log-linear growth plot of the control group of tumors in exponential growth (100–800 mg range) • % T/C mass—The treatment and control groups are measured when the control group tumors reach approximately 700 to 1200 mg in size (median group). The median tumor weight of each group is determined (including zeros). The T/C value in percent is an indication of antitumor effectiveness. A T/C≦42% is considered significant antitumor activity. A T/C<10% is considered to indicate highly significant antitumor activity. • Body Weight Loss Nadir—A body weight loss nadir (mean of group) of greater than 20% or drug deaths greater than 20% are considered to indicate an excessively toxic dosage in single course trials. • Activity Rating—the Activity Rating is derived from the Log Kill according to the following table: […]

[2] = system: MURINE MAMMARY ADENOCARCINOMA-16/C; assay: Early stage murine mammary adenocarcinoma-16/C (Table III); conditions: C3H female mice
From the text: as §1, §2, §3, §4

[3] = total dose 640 mg/kg: 160 mg/kg/injection IV on days 4, 6, 8, and 10
[4] = total dose 1391 mg/kg: 107 mg/kg/injection IV every second day, days 4 to 28
[5] = total dose 600 mg/kg: 100 mg/kg/injection IV on days 3–5 and 9–11
[6] = total dose 870 mg/kg: 145 mg/kg/injection IV on days 3–5 and 9–11
[7] = total dose 560 mg/kg by IV infusion over 3 hours on day 3
[8] = total dose 560 mg/kg: 280 mg/kg by IV infusion on days 3 and 7
[9] = total dose 680 mg/kg IV: 80 mg/kg/injection days 3–6, 120 mg/kg/injection days 7–9

SMILES: O=C(NS(=O)(=O)c1ccccc1)c1ccc(Cl)cc1Cl [Example 110, N-[2,4-dichlorobenzoyl]phenylsulfonamide]
- % BODY WT LOSS AT NADIR [1, 3]: 0%
- % T/C MASS [1, 3]: 14%
- ACTIVITY RATING [1, 3]: ++ (1.3–1.9)
- DRUG DEATHS [1, 3]: 0/4
- GROWTH DELAY [1, 3]: 12.5 days
- LOG KILL [1, 3]: 1.7
- TUMOR FREE AT DAY 174 [1, 3]: 0/4
- % BODY WT LOSS AT NADIR [1, 4]: +1.6%
- % T/C MASS [1, 4]: 20%
- ACTIVITY RATING [1, 4]: +++ (2.0–2.8)
- DRUG DEATHS [1, 4]: 0/5
- GROWTH DELAY [1, 4]: 15.5 days
- LOG KILL [1, 4]: 2.1
- TUMOR FREE AT DAY 174 [1, 4]: 0/5
- % BODY WT LOSS AT NADIR (HUMAN OVARIAN BG-1; [5]): −3.0%
- % T/C MASS (HUMAN OVARIAN BG-1; [5]): 0%
- ACTIVITY RATING (HUMAN OVARIAN BG-1; [5]): ++++ (HIGHLY ACTIVE >2.8)
- DRUG DEATHS (HUMAN OVARIAN BG-1; [5]): 0/5
- GROWTH DELAY (HUMAN OVARIAN BG-1; [5]): 30 days
- LOG KILL (HUMAN OVARIAN BG-1; [5]): 3.6
- TUMOR FREE AT DAY 176 (HUMAN OVARIAN BG-1; [5]): 0/5
- % BODY WT LOSS AT NADIR (HUMAN OVARIAN BG-1; [6]): −2.0%
- % T/C MASS (HUMAN OVARIAN BG-1; [6]): 0%
- ACTIVITY RATING (HUMAN OVARIAN BG-1; [6]): ++++ (HIGHLY ACTIVE >2.8)
- DRUG DEATHS (HUMAN OVARIAN BG-1; [6]): 0/5
- GROWTH DELAY (HUMAN OVARIAN BG-1; [6]): 30.5 days
- LOG KILL (HUMAN OVARIAN BG-1; [6]): 3.7
- TUMOR FREE AT DAY 176 (HUMAN OVARIAN BG-1; [6]): 1/5
- % BODY WT LOSS AT NADIR [2, 7]: DEATH
- ACTIVITY RATING [2, 7]: DEATH
- DRUG DEATHS [2, 7]: 5/5
- GROWTH DELAY (DAYS) [2, 7]: DEATH
- TUMOR FREE AT DAY 14 [2, 7]: 0/5
- % BODY WT LOSS AT NADIR [2, 8]: +10.9%
- % T/C MASS [2, 8]: 37%
- ACTIVITY RATING [2, 8]: + (0.7–1.2)
- DRUG DEATHS [2, 8]: 0/4
- GROWTH DELAY [2, 8]: 2.0 days
- LOG KILL [2, 8]: 0.6
- TUMOR FREE AT DAY 14 [2, 8]: 0/4
- % BODY WT LOSS AT NADIR [2, 9]: +7.6%
- % T/C MASS [2, 9]: 39%
- ACTIVITY RATING [2, 9]: + (0.7–1.2)
- DRUG DEATHS [2, 9]: 0/5
- GROWTH DELAY [2, 9]: 2.5 days
- LOG KILL [2, 9]: 0.75
- TUMOR FREE AT DAY 14 [2, 9]: 0/5
